Test results from patent US20250074911A1, “MACROCYCLIC BTK INHIBITORS” (Crossfire Oncology Holding B.V., priority 2021, published 2025).

Tests used:
[1] = biological target: full-length wt-BTK enzyme (Homo sapiens (Human), UniProt Q06187); assay: Biochemical kinase assay wt-BTK (IMAP)
How it was run: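 IMAP fluorescence polarization assay: 1.2 nM enzyme pre-incubated 1 h with compound at room temperature, then 50 nM fluorescein-labeled MBP-derived peptide and 4 μM ATP added. Reaction ran 2 h at room temperature in the dark before quenching with IMAP binding solution.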

[2] = biological target: full-length BTK C481S enzyme (Homo sapiens (Human), UniProt Q06187, C481S); assay: Biochemical kinase assay BTK C481S (IMAP)
How it was run: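 Full-length BTK C481S (1.2 nM) was pre-incubated with compound for 1 h at room temperature in the dark, then reacted with fluorescein-labelled MBP-derived peptide (50 nM) and ATP (7 μM) for 2 h. Reactions were quenched with IMAP binding solution, and IC50 values were derived from fluorescence polarization.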

[3] = test system: wt-BTK, BTK C481S, BTK T474I and BTK C481S/T474I expressing 293 cells; assay: Cell based washout, pBTK (Tyr223) Western blot; parameters: species or system human; conditions: 1000 nM compound 2 hours, washed twice, harvested 0-24 hours; also cell lines expressing mutant BTK
Experimental: In vitro cellular (mutant) BTK inhibition, and inhibitor wash-out Generation of human wt-BTK, BTK C481S, BTK T474I, and BTK C481S/T474I expressing GripTite 293 MSR cells.
GripTite 293 MSR cells (Thermo Fisher, cat. no. R79507), here after referred to as 293 cells, were cultured in DMEM/F-12, GIutaMAX™ supplement medium (Thermo Fisher cat. no. 10565018) supplemented with 1% Penicilline/Streptomycine (Thermo Fisher cat. no. 15140122) 10% fetal bovine serum (Biowest, cat. no. Si181 0-500), 1× MEM Non-Essential Amino Acids (Thermo Fisher cat. no. 11140050) and 50 μg/ml Geneticin (Thermo Fisher cat. no. 10131035). Cells were transfected, with pEF6/V5-HisB (Thermo Fisher cat. no. V96120) expression vectors containing either full-length wildtype-BTK (canonical sequence NM_000061), BTK C481 S, BTK T474I or BTK C481 S/T474I (BaseClear) using Lipofectamine™ 3000 (Invitrogen). Because the stop codon at the end of the coding sequence of BTK has been conserved, the His-tag present in the expression vector is not being used. Immediately after transfection, cells were cultured in medium without Geneticin, and after 24 hours 50 μg/ml geneticin was added. 48 hours after transfection, medium was removed and replaced by medium containing both geneticin (50 μg/ml) and blasticidin (10 μg/ml) S HCl (Thermo Fisher, cat. no. A1113903). The resulting transfectants were cultured under blasticidin selection pressure for 18-35 passages to obtain stable wild-type BTK (wt-BTK), BTK C481S, BTK T474I, and BTK C481 S/T474I expressing cell pools. Stability of the (mutant) BTK expression in the 293 cell pools was confirmed by poly-acrylamide gel electrophoresis followed by Western blotting (FIG. 1A). […] For both experiments 10 μg of protein was separated on 4-12% Bis-Tris polyacrylamide gels.
Wild-type BTK, BTK C481S, BTK T474I or BTK C481 S/T474I expressing 293 cells were lysed in lysis buffer supplemented with protease inhibitors (Merck, cat. no. P8340) and phosphatase inhibitors (Thermo Fisher, cat. no. 78426). The protein concentration was determined with a Pierce BCA protein assay kit (Thermo Fisher, cat. no. 23227). Lysates were diluted to a concentration of 1 μg/μl in NuPage® LDS Sample Buffer (Thermo Fisher, cat. no. NP0008) with 167 mM DTT (Acros Organics, cat. no. 10686841) and denatured for 5 minutes at 95° C. The samples (10 μg protein) were, together with a pre stained protein ladder (Thermo Fisher, cat. no. 26616), separated on 4-12% Bis-Tris polyacrylamide gels (Thermo Fisher, cat. no. NP0324BOX). Separated protein was subsequently transferred, in methanol free transfer buffer (Thermo Fisher, cat. no. 35045), to a nitrocellulose membrane (Thermo Fisher, cat. no. 88018). Blots were first immunologically stained with phospho-BTK (Tyr223) rabbit mAb (Cell Signaling, cat. no. 5082S), and beta-actin rabbit mAb (Cell Signaling, cat. no. 4967S), followed by peroxidase conjugated goat anti-rabbit IgG (Cell Signaling, cat. no. 7074S). Afterwards, antibodies were removed using Western-blot stripping buffer (Thermo Fisher cat. no. 46428) and staining was repeated with a (total-)BTK mouse mAb (Abnova, cat. no. MAB0798), followed by peroxidase conjugated horse anti-mouse IgG (Cell Signaling, cat. no. 7076S). For all blots the colour development was performed with ECL horseradish peroxidase substrate (BioRad, cat. no. 170-5060).
Wild-type BTK, BTK C481S, BTK T474I, and BTK C481 S/T474I expressing 293 cells were growing exponentially when seeded in culture medium, without blasticidin, at a density of 2,000,000 cells/4 ml/well, in 25 cm^2 cell culture flasks (Greiner Bio-one, cat. no. 690175). Flasks were placed in a 37° C. C02-incubator for 16-24 hours after which 1 ml culture medium containing 5000 nM of the compound of Example 46 or Example 201, or Example 184, or Example 204, or Example 45 or (+/−) Loxo-305, or 0.05% DMSO (no compound) was added. 2 hours after addition of the inhibitors (0h) cells are either collected or washed twice with 5 ml culture medium. […]

full-length BTK C481S enzyme, sequence (Q06187 whole entry C481S): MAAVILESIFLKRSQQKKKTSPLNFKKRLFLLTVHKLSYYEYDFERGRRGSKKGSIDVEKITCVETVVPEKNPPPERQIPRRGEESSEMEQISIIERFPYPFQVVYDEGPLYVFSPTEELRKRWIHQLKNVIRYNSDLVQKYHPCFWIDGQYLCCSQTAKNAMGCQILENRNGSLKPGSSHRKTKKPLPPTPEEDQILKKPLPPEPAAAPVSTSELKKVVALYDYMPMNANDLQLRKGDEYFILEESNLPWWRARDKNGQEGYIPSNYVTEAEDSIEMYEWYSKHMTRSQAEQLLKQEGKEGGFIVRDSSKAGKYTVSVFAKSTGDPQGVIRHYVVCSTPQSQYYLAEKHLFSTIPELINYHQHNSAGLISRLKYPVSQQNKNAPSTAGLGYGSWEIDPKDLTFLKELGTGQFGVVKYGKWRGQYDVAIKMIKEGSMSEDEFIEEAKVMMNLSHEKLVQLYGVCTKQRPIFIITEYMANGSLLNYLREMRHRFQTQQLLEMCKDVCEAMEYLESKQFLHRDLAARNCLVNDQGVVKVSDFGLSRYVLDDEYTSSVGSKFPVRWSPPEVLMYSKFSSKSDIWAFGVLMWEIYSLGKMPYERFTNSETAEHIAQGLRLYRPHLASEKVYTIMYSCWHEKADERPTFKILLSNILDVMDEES
full-length wt-BTK enzyme, sequence (Q06187 whole entry): as the sequence (Q06187 whole entry C481S) above, with S481C counted along it

SMILES | IC50 [1] [nM] | IC50 [2] [nM] | time for which level of phosphorylated BTK (pBTK (Tyr223)) is prohibited or reduced after wash-out [3]
Nc1ncc2c3c1c(-c1ccc(C(=O)Nc4cc(C(F)(F)F)ccn4)cc1)nn3[C@@H]1CCC[C@H](C1)NC(=O)CCOC/C=C/2 [Example 25] | < 5 | < 5 | at least 6 hours
C[C@@H]1CC(=O)N[C@@H]2CCC[C@H](C2)n2nc(-c3ccc(C(=O)Nc4cc(C(F)(F)F)ccn4)cc3)c3c(N)ncc(c32)/C=C/CCN1 [Example 45] | < 5 | < 5 | at least 6 hours
N#Cc1ccnc(NC(=O)c2ccc(-c3nc4n5c(cnc(N)c35)/C=C/CCCCCC(=O)N[C@@H]3CCC[C@@H]4C3)cc2)c1 [Example 184] | < 5 | < 5 | at least 6 hours
N#Cc1ccnc(NC(=O)c2ccc(-c3nc4n5c(cnc(N)c35)/C=C/CCOCCC(=O)N[C@@H]3CC[C@@H]4C3)cc2)c1 [Example 201] | < 5 | < 5 | at least 6 hours
N#Cc1ccnc(NC(=O)c2ccc(-c3nc4n5c(cnc(N)c35)/C=C/CCCCCC(=O)N[C@@H]3CC[C@@H]4C3)cc2)c1 [Example 204] | < 5 | < 5 | at least 6 hours
